Source: article PMC5218480 (PLoS ONE, 2017)

Tested on: MV-4-11 cells
Test: Gene expression microarray analysis (Affymetrix PrimeView) and GSEA
Type: cell-based, human
Design: RFU PODN (11730768_x_at) / Fold change /veh PODN (11730768_x_at) / RFU LINC00158 (11744669_a_at) / Fold change /veh LINC00158 (11744669_a_at) / RFU DUSP10 (11751237_a_at) / Fold change /veh DUSP10 (11751237_a_at) / RFU ID3 (11757404_x_at) / Fold change /veh ID3 (11757404_x_at) / RFU PLEKHG5 (11737974_s_at) / Fold change /veh PLEKHG5 (11737974_s_at) / RFU LRRC4B (11730491_at) / Fold change /veh LRRC4B (11730491_at) / RFU GIMAP4 (11747438_a_at) / Fold change /veh GIMAP4 (11747438_a_at) / RFU KRT8 (11758183_x_at) / Fold change /veh KRT8 (11758183_x_at) / RFU CNN1 (11734310_a_at) / Fold change /veh CNN1 (11734310_a_at) / RFU VPS37D (11726825_at) / Fold change /veh VPS37D (11726825_at) / RFU C10orf10 (11716522_x_at) / Fold change /veh C10orf10 (11716522_x_at) / RFU KIR2DL2 /// KIR2DL4 /// KIR2DL5A /// KIR2DL5B /// KIR2DS1 /// KIR2DS2 /// KIR2DS3 /// KIR2DS4 /// KIR3DL3 /// KIR3DL3 /// KIR3DS1 (11738374_at) / Fold change /veh KIR2DL2 /// KIR2DL4 /// KIR2DL5A /// KIR2DL5B /// KIR2DS1 /// KIR2DS2 /// KIR2DS3 /// KIR2DS4 /// KIR3DL3 /// KIR3DL3 /// KIR3DS1 (11738374_at) / RFU C1QL1 (11718748_at) / Fold change /veh C1QL1 (11718748_at) / RFU TMPRSS4 (11747572_a_at) / Fold change /veh TMPRSS4 (11747572_a_at) / RFU HAMP (11756126_x_at) / Fold change /veh HAMP (11756126_x_at) / RFU RNFT2 (11725882_a_at) / Fold change /veh RNFT2 (11725882_a_at) / RFU NR4A2 (11747474_a_at) / Fold change /veh NR4A2 (11747474_a_at) / RFU ABCC12 (11746883_a_at) / Fold change /veh ABCC12 (11746883_a_at) / RFU TMEM136 (11760407_x_at) / Fold change /veh TMEM136 (11760407_x_at) / RFU CLDN22 /// WWC2 (11732394_at) / Fold change /veh CLDN22 /// WWC2 (11732394_at) / RFU HLA-DPB1 (11760878_x_at) / Fold change /veh HLA-DPB1 (11760878_x_at) / RFU SPINT1 (11716480_a_at) / Fold change /veh SPINT1 (11716480_a_at) / RFU GAP43 (11754022_s_at) / Fold change /veh GAP43 (11754022_s_at) / RFU A4GNT (11735810_at) / Fold change /veh A4GNT (11735810_at) / RFU PRB3 (11715151_x_at) / Fold change /veh PRB3 (11715151_x_at) / RFU TUBB4B (11761932_at) / Fold change /veh TUBB4B (11761932_at) / RFU CAPN14 (11732068_a_at) / Fold change /veh CAPN14 (11732068_a_at) / RFU TMCC2 (11721928_a_at) / Fold change /veh TMCC2 (11721928_a_at) / RFU IRGQ (11745062_a_at) / Fold change /veh IRGQ (11745062_a_at) / RFU FAM174B (11720279_a_at) / Fold change /veh FAM174B (11720279_a_at) / RFU TMPRSS4 (11748680_a_at) / Fold change /veh TMPRSS4 (11748680_a_at) / RFU FAM212B (11763350_a_at) / Fold change /veh FAM212B (11763350_a_at) / RFU PLEKHG5 (11743358_a_at) / Fold change /veh PLEKHG5 (11743358_a_at) / RFU ZSCAN30 (11745921_a_at) / Fold change /veh ZSCAN30 (11745921_a_at) / RFU CMKLR1 (11741424_a_at) / Fold change /veh CMKLR1 (11741424_a_at) / RFU LOC101060620 /// MAPK8IP1 (11723275_at) / Fold change /veh LOC101060620 /// MAPK8IP1 (11723275_at) / RFU SPTSSB (11747773_x_at) / Fold change /veh SPTSSB (11747773_x_at) / RFU PRSS12 (11739890_at) / Fold change /veh PRSS12 (11739890_at) / RFU BIN1 (11741810_x_at) / Fold change /veh BIN1 (11741810_x_at) / RFU WNT11 (11732464_a_at) / Fold change /veh WNT11 (11732464_a_at) / RFU C10orf10 (11716521_a_at) / Fold change /veh C10orf10 (11716521_a_at) / RFU C5orf56 (11738089_at) / Fold change /veh C5orf56 (11738089_at) / RFU CYB561 (11721691_x_at) / Fold change /veh CYB561 (11721691_x_at) / RFU ANKRD19P (11752326_a_at) / Fold change /veh ANKRD19P (11752326_a_at) / RFU OR2T12 /// OR2T33 /// OR2T8 (11738714_s_at) / Fold change /veh OR2T12 /// OR2T33 /// OR2T8 (11738714_s_at) / RFU VCAN (11748164_a_at) / Fold change /veh VCAN (11748164_a_at) / RFU JSRP1 (11732532_at) / Fold change /veh JSRP1 (11732532_at) / RFU KRTAP10-11 (11738290_x_at) / Fold change /veh KRTAP10-11 (11738290_x_at) / RFU MYO3A (11730013_a_at) / Fold change /veh MYO3A (11730013_a_at) / RFU EBF3 (11725865_a_at) / Fold change /veh EBF3 (11725865_a_at) / RFU CAMK2N1 (11719241_x_at) / Fold change /veh CAMK2N1 (11719241_x_at) / RFU C5orf56 (11738088_a_at) / Fold change /veh C5orf56 (11738088_a_at) / RFU OLFML3 (11715873_a_at) / Fold change /veh OLFML3 (11715873_a_at) / RFU LOC100653217 /// NTM (11731650_a_at) / Fold change /veh LOC100653217 /// NTM (11731650_a_at) / RFU MAPK11 (11762145_a_at) / Fold change /veh MAPK11 (11762145_a_at) / RFU FIZ1 (11724087_x_at) / Fold change /veh FIZ1 (11724087_x_at) / RFU OASL (11726364_x_at) / Fold change /veh OASL (11726364_x_at) / RFU SOX15 (11748057_x_at) / Fold change /veh SOX15 (11748057_x_at) / RFU CD79A (11719716_a_at) / Fold change /veh CD79A (11719716_a_at) / RFU HIST1H1D (11736915_at) / Fold change /veh HIST1H1D (11736915_at) / RFU CASKIN2 (11723855_a_at) / Fold change /veh CASKIN2 (11723855_a_at) / RFU LOC730098 (11760151_x_at) / Fold change /veh LOC730098 (11760151_x_at) / RFU OR4N2 (11742367_at) / Fold change /veh OR4N2 (11742367_at) / RFU PRRT2 (11749266_a_at) / Fold change /veh PRRT2 (11749266_a_at) / RFU SNX32 (11753110_a_at) / Fold change /veh SNX32 (11753110_a_at) / RFU CDHR5 (11726645_a_at) / Fold change /veh CDHR5 (11726645_a_at) / RFU RCAN1 (11760418_a_at) / Fold change /veh RCAN1 (11760418_a_at) / RFU FAM167A (11723789_a_at) / Fold change /veh FAM167A (11723789_a_at) / RFU FAM26E (11764081_at) / Fold change /veh FAM26E (11764081_at) / RFU ISYNA1 (11749810_s_at) / Fold change /veh ISYNA1 (11749810_s_at) / RFU ACY1 (11761880_at) / Fold change /veh ACY1 (11761880_at) / RFU 11764098_at / Fold change /veh 11764098_at / RFU SAMD14 (11745864_x_at) / Fold change /veh SAMD14 (11745864_x_at) / RFU NPB (11741838_a_at) / Fold change /veh NPB (11741838_a_at) / RFU TMPRSS6 (11731388_a_at) / Fold change /veh TMPRSS6 (11731388_a_at) / RFU KRTAP10-2 (11738614_at) / Fold change /veh KRTAP10-2 (11738614_at) / RFU ARHGAP8 /// PRR5-ARHGAP8 (11727945_x_at) / Fold change /veh ARHGAP8 /// PRR5-ARHGAP8 (11727945_x_at) / RFU KRTAP5-7 /// NADSYN1 (11734609_at) / Fold change /veh KRTAP5-7 /// NADSYN1 (11734609_at) / RFU RASL12 (11751679_a_at) / Fold change /veh RASL12 (11751679_a_at) / RFU CDKN2B (11736163_a_at) / Fold change /veh CDKN2B (11736163_a_at) / RFU PRF1 (11729649_at) / Fold change /veh PRF1 (11729649_at) / RFU, ZNF638 /// ZNF638-IT1 / Fold change vs veh, ZNF638 /// ZNF638-IT1 / RFU, PANK3 / Fold change vs veh, PANK3 / RFU, SH3YL1 / Fold change vs veh, SH3YL1 / RFU, ZEB2 / Fold change vs veh, ZEB2 / RFU, NRIP1 / Fold change vs veh, NRIP1 / RFU, PTTG1IP / Fold change vs veh, PTTG1IP / RFU, CAPN2 / Fold change vs veh, CAPN2 / RFU, MED14 / Fold change vs veh, MED14 / RFU, SNORA58 / Fold change vs veh, SNORA58 / RFU, C1orf63 / Fold change vs veh, C1orf63 / RFU, LRRFIP1 / Fold change vs veh, LRRFIP1 / RFU, NDUFAF7 / Fold change vs veh, NDUFAF7 / RFU, SLC12A2 / Fold change vs veh, SLC12A2 / RFU, IBTK / Fold change vs veh, IBTK / RFU, ESF1 / Fold change vs veh, ESF1 / Fold change vs veh, TMEM50B / RFU, TAOK1 / Fold change vs veh, TAOK1 / RFU, ACBD3 / Fold change vs veh, ACBD3 / RFU, TMA16 / Fold change vs veh, TMA16 / RFU, RWDD3 / Fold change vs veh, RWDD3 / RFU, BCAT1 / Fold change vs veh, BCAT1 / RFU, EDEM3 / Fold change vs veh, EDEM3 / RFU, TMEM33 / Fold change vs veh, TMEM33 / RFU, WDR75 / Fold change vs veh, WDR75 / RFU, AHCTF1 / Fold change vs veh, AHCTF1 / RFU, TFRC / Fold change vs veh, TFRC / RFU, ZDHHC17 / Fold change vs veh, ZDHHC17 / RFU, NOM1 / Fold change vs veh, NOM1 / RFU, ARL8B / Fold change vs veh, ARL8B / RFU, ZBTB11 / Fold change vs veh, ZBTB11 / RFU, TAMM41 / Fold change vs veh, TAMM41 / RFU, KIAA1704 /// LOC100996395 / Fold change vs veh, KIAA1704 /// LOC100996395 / RFU, ING1 / Fold change vs veh, ING1 / RFU, TRMT61B / Fold change vs veh, TRMT61B / RFU, FUBP3 / Fold change vs veh, FUBP3 / RFU, TP53 / Fold change vs veh, TP53 / RFU, TNKS2 / Fold change vs veh, TNKS2 / RFU, ZFP14 / Fold change vs veh, ZFP14 / RFU, ACTR2 / Fold change vs veh, ACTR2 / RFU, PPP3R1 / Fold change vs veh, PPP3R1 / RFU, PIK3R1 / Fold change vs veh, PIK3R1 / RFU, HNRNPA1 / Fold change vs veh, HNRNPA1 / RFU, RNF170 / Fold change vs veh, RNF170 / RFU, ZNF28 / Fold change vs veh, ZNF28 / RFU, RNGTT / Fold change vs veh, RNGTT / RFU, OGT / Fold change vs veh, OGT / RFU, BRD1 / Fold change vs veh, BRD1 / RFU, MARS / Fold change vs veh, MARS / RFU, ZNF655 / Fold change vs veh, ZNF655 / RFU, FAHD1 / Fold change vs veh, FAHD1 / RFU, BDP1 / Fold change vs veh, BDP1 / RFU, LRRCC1 / Fold change vs veh, LRRCC1 / RFU, ARID1A / Fold change vs veh, ARID1A / RFU, ZNF146 / Fold change vs veh, ZNF146 / RFU, ZNF330 / Fold change vs veh, ZNF330 / RFU, GPN3 / Fold change vs veh, GPN3 / RFU, C9orf123 / Fold change vs veh, C9orf123 / RFU, N4BP2L2 / Fold change vs veh, N4BP2L2 / RFU, ARFIP1 / Fold change vs veh, ARFIP1 / RFU, FAM179B / Fold change vs veh, FAM179B / RFU, BCL10 / Fold change vs veh, BCL10 / RFU, UHRF1BP1L / Fold change vs veh, UHRF1BP1L / RFU, BET1 / Fold change vs veh, BET1 / RFU, CNOT2 / Fold change vs veh, CNOT2 / RFU, ZNF268 / Fold change vs veh, ZNF268 / Fold change vs veh, ZNF507 / RFU, DGCR2 / Fold change vs veh, DGCR2 / RFU, WDSUB1 / Fold change vs veh, WDSUB1 / Fold change vs veh, HSP90B1 /// MIR3652 / RFU, ADSS / Fold change vs veh, ADSS / RFU, GK / Fold change vs veh, GK / RFU, ZNF148 / Fold change vs veh, ZNF148 / RFU, TAF9 / Fold change vs veh, TAF9 / RFU, SLC1A5 / Fold change vs veh, SLC1A5 / RFU, SLMO2 / Fold change vs veh, SLMO2 / RFU, ABCC4 / Fold change vs veh, ABCC4 / RFU, LOC101060439 /// RAP1B / Fold change vs veh, LOC101060439 /// RAP1B / RFU, RFX7 / Fold change vs veh, RFX7 / RFU, GTPBP10 / Fold change vs veh, GTPBP10 / RFU, CNEP1R1 / Fold change vs veh, CNEP1R1 / RFU, BIVM-ERCC5 /// ERCC5 / Fold change vs veh, BIVM-ERCC5 /// ERCC5 / RFU, ILF3 / Fold change vs veh, ILF3 / RFU 11762660_at / Fold change /veh 11762660_at / RFU VCAN (11757783_s_at) / Fold change /veh VCAN (11757783_s_at) / RFU DDX43 (11728927_at) / Fold change /veh DDX43 (11728927_at) / RFU KRT8 (11758188_x_at) / Fold change /veh KRT8 (11758188_x_at) / RFU NKD1 (11759106_at) / Fold change /veh NKD1 (11759106_at) / RFU SRD5A1 (11742802_a_at) / Fold change /veh SRD5A1 (11742802_a_at) / RFU TPSAB1 /// TPSB2 (11721975_s_at) / Fold change /veh TPSAB1 /// TPSB2 (11721975_s_at) / RFU GSTM3 (11746129_a_at) / Fold change /veh GSTM3 (11746129_a_at) / RFU IL23R (11737362_x_at) / Fold change /veh IL23R (11737362_x_at) / RFU TMEM51 (11727254_a_at) / Fold change /veh TMEM51 (11727254_a_at) / RFU PIWIL2 (11732686_x_at) / Fold change /veh PIWIL2 (11732686_x_at) / RFU ORM1 (11744905_x_at) / Fold change /veh ORM1 (11744905_x_at) / RFU CCDC152 (11743942_at) / Fold change /veh CCDC152 (11743942_at) / RFU ECM1 (11717891_a_at) / Fold change /veh ECM1 (11717891_a_at) / RFU IL23R (11748794_a_at) / Fold change /veh IL23R (11748794_a_at) / RFU TNFAIP8L3 (11732012_x_at) / Fold change /veh TNFAIP8L3 (11732012_x_at) / RFU MBOAT4 (11741988_at) / Fold change /veh MBOAT4 (11741988_at) / RFU 11764193_at / Fold change /veh 11764193_at / RFU TMEM53 (11763286_at) / Fold change /veh TMEM53 (11763286_at) / RFU MAGEB2 (11727129_at) / Fold change /veh MAGEB2 (11727129_at) / RFU TMEM200A (11744735_a_at) / Fold change /veh TMEM200A (11744735_a_at) / RFU CCDC152 (11751479_a_at) / Fold change /veh CCDC152 (11751479_a_at) / RFU FAM211A (11726209_a_at) / Fold change /veh FAM211A (11726209_a_at) / RFU RGS16 (11746705_a_at) / Fold change /veh RGS16 (11746705_a_at) / RFU VCAN (11755009_s_at) / Fold change /veh VCAN (11755009_s_at) / RFU RHOB (11743442_s_at) / Fold change /veh RHOB (11743442_s_at) / RFU RGS16 (11720943_a_at) / Fold change /veh RGS16 (11720943_a_at) / RFU RGS16 (11720944_at) / Fold change /veh RGS16 (11720944_at) / RFU, VPS4B / Fold change vs veh, VPS4B / RFU, CREB1 / Fold change vs veh, CREB1 / RFU, DNAJC13 / Fold change vs veh, DNAJC13 / RFU, GNAQ / Fold change vs veh, GNAQ / RFU, CDK5R1 / Fold change vs veh, CDK5R1 / RFU, ZRANB3 / Fold change vs veh, ZRANB3 / RFU, CUL4A / Fold change vs veh, CUL4A / RFU, CCNY / Fold change vs veh, CCNY / RFU, UFL1 / Fold change vs veh, UFL1 / RFU, COG3 / Fold change vs veh, COG3 / RFU, DIAPH2 / Fold change vs veh, DIAPH2 / RFU, SKA2 / Fold change vs veh, SKA2 / RFU, AFF3 / Fold change vs veh, AFF3 / RFU, LMF1 / Fold change vs veh, LMF1 / RFU, IPO11 / Fold change vs veh, IPO11 / RFU, DFFB / Fold change vs veh, DFFB / RFU, FOXP1 / Fold change vs veh, FOXP1 / RFU, CARD8 / Fold change vs veh, CARD8 / RFU, STRN3 / Fold change vs veh, STRN3 / RFU, ADK / Fold change vs veh, ADK / RFU, RASSF2 / Fold change vs veh, RASSF2 / RFU, WIPF1 / Fold change vs veh, WIPF1 / RFU, LARP1B / Fold change vs veh, LARP1B / RFU, RASA1 / Fold change vs veh, RASA1 / RFU, RB1 / Fold change vs veh, RB1 / RFU, PPFIA1 / Fold change vs veh, PPFIA1 / RFU, MAT2A / Fold change vs veh, MAT2A / RFU, CCT5 / Fold change vs veh, CCT5 / RFU, WDR92 / Fold change vs veh, WDR92 / RFU, CUX1 / Fold change vs veh, CUX1 / RFU, TTC7A / Fold change vs veh, TTC7A / RFU, TMEM135 / Fold change vs veh, TMEM135 / RFU, DEPTOR / Fold change vs veh, DEPTOR / RFU, CPM / Fold change vs veh, CPM / RFU, DNAJB6 / Fold change vs veh, DNAJB6 / RFU, CACNA2D3 / Fold change vs veh, CACNA2D3 / RFU, DTX4 / Fold change vs veh, DTX4 / RFU, TFCP2 / Fold change vs veh, TFCP2 / RFU, GMCL1 /// GMCL1P1 / Fold change vs veh, GMCL1 /// GMCL1P1 / RFU, AEBP2 / Fold change vs veh, AEBP2 / RFU, SNHG1 /// SNORD22 /// SNORD25 /// SNORD26 /// SNORD27 /// SNORD28 /// SNORD29 /// SNORD31 / Fold change vs veh, SNHG1 /// SNORD22 /// SNORD25 /// SNORD26 /// SNORD27 /// SNORD28 /// SNORD29 /// SNORD31 / Fold change (Aza/veh), C12orf56 (ProbeSet 11735607_a_at) / Fold change (ACY-1035/veh), C12orf56 (ProbeSet 11735607_a_at) / Fold change (Aza/veh), FGFR1OP (ProbeSet 11751329_s_at) / Fold change (ACY-1035/veh), FGFR1OP (ProbeSet 11751329_s_at) / Fold change (Aza/veh), VPS36 (ProbeSet 11739960_a_at) / Fold change (ACY-1035/veh), VPS36 (ProbeSet 11739960_a_at) / RFU SYPL1 (11715823_x_at) / Fold change /veh SYPL1 (11715823_x_at) / RFU IGFBP7 (11715501_s_at) / Fold change /veh IGFBP7 (11715501_s_at) / RFU REEP3 (11722064_at) / Fold change /veh REEP3 (11722064_at) / RFU IGLL1 (11728026_x_at) / Fold change /veh IGLL1 (11728026_x_at): dose or concentration left out as unconfirmed
Conditions: ProbeSet 11716931_at; LIST B

Question: Which “RFU, DGCR2” value does the source give for Nc1ccc(-c2cccs2)cc1NC(=O)c1ccc2c(c1)cc(C1CC1)n2CCN1CCOCC1 [ACY-1035] here?
Answer: 215.86 RFU
